Tests used:
[1] = test system: alternative splicing events of endogenous genes; assay: RT-PCR analysis of global alternative splicing events in PBMC samples; format: cell-based, human
From the text: Quantification of non-viral RNA splicing is achieved using the protocols detailed in Klinck et al. (Multiple alternative splicing markers for ovarian cancer. Cancer Res. 68, 657-663 (2008)) and Venables et al. (Cancer-associated regulation of alternative splicing. Nat. Struct. Mol. Biol. 16, 670-676 (2009)).
These 382 alternative splicing events (ASEs) represent a high throughput random snapshot of global alterations of alternative splicing. High throughput PCR analysis of these (essentially random) 382 ASEs on multiple PBMC samples was performed, either from untreated (cells) or treated with DMSO, Compound 1 or with the control antiviral drug (Darunavir). Analysis of the data allowed further stringent quality controls; ASEs were only considered if >75% of the products ran at the expected mobilities (i.e. if the reactions were pure) and if total expected PCR concentration was higher than 20 nM (i.e. if the reactions were strong) which led to 264 remaining ASEs.

PBMCs = assay: Lymphocyte populations in treated PBMCs; format: cell-based, human
[2] = test system: Rev-mediated export of viral RNA; assay: HIV reporter system (MS2-GFP) in HeLa cells: Rev-mediated export of viral RNA; format: cell-based; conditions: in the absence of Rev, data not shown
From the text: FIG. 8. Compound 1 influences Rev-mediated HIV RNA biogenesis and export. A) Schematic representation of the HIV-1 reporter gene B) Visualization of GFP-MS2-Bound RNA in HeLa cells expressing tat, MS2-GFP and HIV-reporter transcripts in non transfected or transfected cells with Rev. Rev-transfected cells were untreated (DMSO) or treated with Compound 1. Arrow indicates transcription site. C) Quantitation of images corresponding to untreated (DMSO) or treated (Compound 1) in (B), in terms of: total GFP (upper panel) expressed in RFU or Relative Fluorescence Units; in the nucleoplasm (middle panel) expressed in Number of Foci in Rev-transfected cells; or at the start site (lower panel) expressed as a percentage of nuclei with a starting transcription point. Box-plots show the average GFP intensity (foci numbers or starting transcription point numbers) of Rev-transfected HeLa cells for each condition. Whiskers correspond to the minimum and maximum, boxes, to the 25-75 percentiles and the band inside the box, to the median. […]
Cells plated on cover slips were fixed for 10 min in 3.7% formaldehyde (in PBS) followed by a 2-min permeabilization with 0.1% Triton X-100 (in PBS) and incubation in PBS containing 0.1% bovine serum albumin. […] Cells were washed in PBS mounted with DAKO mounting medium and observed under the fluorescence microscope. […]

HIV-1 strain YU2 = assay: HIV-1 p24 production in infected monocyte derived-macrophages; format: cell-based; conditions: Human immunodeficiency virus 1, Primary macrophage, read-out: inhibition levels of virus replication (p24)
From the text: FIG. 5. Potency of indole derivatives to inhibit HIV-1 production in PBMC- and macrophages-infected cells. A) HIV-1 strain Ada-MR5 was used to infect triplicate of activated PBMCs from different donors (stimulated for two days with PHA and IL2) in the absence or presence of increasing concentrations of Compound 1. Supernatant was harvested 6 days post-infection (pi) and viral capsid protein p24 antigen was quantitated using standard ELISA protocol. Each point represents 6 donors. B) HIV-1 strain YU2 was used to infect triplicate of monocyte derived-macrophages from different donors in the absence or presence of increasing concentrations of Compound 1. Supernatant was harvested 8 days pi and viral capsid protein p24 antigen was quantitated using standard ELISA protocol. Each point represents 8 donors.
To generate monocyte derived macrophages (MDMs), monocytes were isolated using CD14 microbeads (catalog no. 130-050-201; Miltenyi) and cultured in X-VIVO10 medium (Lonza) supplemented with GM-CSF 1000 U/ml and M-CSF 100 ng/ml for 6 days. Monocytes were seeded at a cell count of 50′000 cells per well in a 96 well plate. After 6 days medium was replaced with X-VIVO10 w/o Cytokines. […]
Cells were treated with 0.01 μM up to 30 μM and p24 antigen levels were monitored in culture supernatant over a 12 day period. […]

With FC(F)(F)Oc1ccc(Nc2ccc3cccc(Cl)c3n2)cc1 [Compound 1, 8-chloro-N-(4-(trifluoromethoxy)phenyl)quinolin-2-amine] the “global effect on pre-mRNA splicing” value [1] was “no global effect”, the “effect on the different populations of lymphocytes present in PBMCs” value (PBMCs) was “did not alter” and the “effect on reporter cells” value [2] was “no effect”. For the same compound, the inhibition at 0.1 µM (HIV-1 strain YU2) was ≤ 90%.

Source: US10718770B2, “Methods for screening compounds for treating or preventing a viral infection or a virus-related condition” (ABIVAX, priority 2015, dated 2020)
